A short description of series [1]: Microsomal stability. Type of series: in vitro ADME. To be noted: mouse liver microsomes, NADPH, 37°C; read-out: half-life in mouse liver microsomes (t1/2). As to the method:
Microsomal stability assay was performed as previously described. CCG-211790 (100 mM stock solution in DMSO) was diluted 1000-fold with phosphate-buffered saline (PBS) containing up to 10% MeOH as a co-solvent. Compound (100 μM) was added to 366 μL of 100 mM phosphate buffer containing 3.3 mM MgCl2 and 10 μL of 20 mg/mL mouse liver microsomal extract (XenoTech, Lenexa, KS, USA). Enzymatic oxidation was initiated by adding 15 μL of 16.7 mg/mL NADPH in 100 mM phosphate buffer containing 3.3 mM MgCl2. The reactions were carried out at 37°C for 60 min. Aliquots of the reaction mixture (30 μL) were sampled and the reaction was stopped by adding 90 μL cold acetonitrile containing an internal standard compound at each time point (0, 1, 3, 5, 10, 30, and 60 min). The quenched sample mixtures were centrifuged at 16,000 g for 10 min. The supernatant was then analyzed via an LC–MS/MS system equipped with a reverse-phase column.

A short description of series [2]: Solubility in water containing sodium dodecyl sulfate (SDS). Type of series: physicochemical. To be noted: aqueous with cosolvent or surfactant or cyclodextrin, thermodynamic from solid, 37°C; for solubility at 24 h / solubility at 48 h: 200 rpm; for solubility: mean of 24 and 48 h. As to the method:
The concentration of CCG-211790 in deionized water or aqueous solutions was determined using an Agilent series 1100 HPLC system (Agilent Technologies, Santa Clara, CA, USA) equipped with diode array detector. Sample separation was carried out with a Kinetex C18 column (75 mm × 3 mm, particle size 2.6 μm, Phenomenex Inc., Torrance, CA, USA). The mobile phase of acetonitrile-water (50:50, v/v) was used for chromatographic separation. The flow rate was set to 0.5 mL/min, column temperature to 35°C. The absorption was measured at wavelength 255 nm. The injection volume was 30 μL. The retention time of CCG-211790 was 4.9 min. The method detection limit was 0.02 mg/L. Calibration curves were established giving a correlation coefficient >0.9900. The procedure to determine solubility in water with presence of SDS is based on the Paddle Method as described in the U.S. Pharmacopeia <711> on the in vitro dissolution tests with minor revision. To determine the saturation solubility in water containing SDS, CCG-211790 bulk powder was added in excess (around 5 mg of CCG-211790) to 10 mL of SDS solutions with various concentrations (0.5, 1.0 or 2.0% w/v). After incubation for 24–48 h in a shaking incubator at 37°C and 200 rpm to reach saturation status, aliquot (2 mL) of the incubated sample was filtered through a 0.22 μm Millipore filter (Millipore Corp., Billerica, MA, USA). Solutions passing through the filter were collected (0.5 mL) and were diluted 2-fold with acetonitrile. CCG-211790 concentration in SDS solutions was determined by HPLC analysis.

A short description of series [3]: Solubility in water. Type of series: physicochemical. Here is the method: The concentration of CCG-211790 in deionized water or aqueous solutions was determined using an Agilent series 1100 HPLC system (Agilent Technologies, Santa Clara, CA, USA) equipped with diode array detector. Sample separation was carried out with a Kinetex C18 column (75 mm × 3 mm, particle size 2.6 μm, Phenomenex Inc., Torrance, CA, USA). The mobile phase of acetonitrile-water (50:50, v/v) was used for chromatographic separation. The flow rate was set to 0.5 mL/min, column temperature to 35°C. The absorption was measured at wavelength 255 nm. The injection volume was 30 μL. The retention time of CCG-211790 was 4.9 min. The method detection limit was 0.02 mg/L. Calibration curves were established giving a correlation coefficient >0.9900. To determine the solubility of CCG-211790 in water, an excess amount of CCG-211790 powder was added into water. […] The sample aliquots (0.5 mL each) were centrifuged at 20,000 ×g for 5 min with Amicon Ultra-0.5 Centrifugal Filter Units (MWCO 3000 Da, Millipore Corp., Billerica, MA, USA). Solutions passing through the filter were diluted 2-fold with acetonitrile and CCG-211790 concentration in water was determined by HPLC analysis. The experiment was run in triplicate with mean values and standard deviations being reported.

Setting [4] is: 0.5% (w/v) SDS solution, 0.5% (w/v) SDS.
Where [5] appears, read: 1.0% (w/v) SDS solution, 1.0% (w/v) SDS.
Setting [6] is: 2.0% (w/v) SDS solution, 2.0% (w/v) SDS.

Values after ≈ are worked out from the molar mass of the structure shown.

On to `COc1ccc2c(c1)-c1nc(SCC(F)(F)F)n(C)c(=O)c1C(C)(C)C2` [CCG-211790, 9-Methoxy-3,5,5-trimethyl-2-((2,2,2-trifluoroethyl)thio)-5,6-dihydrobenzo[h]quinazolin-4(3H)-one], for which, in series [1], the half-life is 19.6 min. In series [2] (setting [4]), the solubility at 24 h was 32.9 µg/mL (≈ 85.6 µM), the concentration in solution (solubility at 48 h) came to 26.8 µg/mL (≈ 69.7 µM) and the solubility came to 29.9 ± 4.3 µg/mL (≈ 77.8 µM). Also, in series [2] (setting [5]), the concentration in solution (solubility at 24 h) was 68.5 µg/mL (≈ 178 µM), the solubility at 48 h came out at 63.8 µg/mL (≈ 166 µM) and the concentration in solution (solubility) came to 66.1 ± 3.3 µg/mL (≈ 172 µM). In series [2] (setting [6]), this compound yielded a solubility at 24 h of 161 µg/mL (≈ 420 µM), a solubility at 48 h of 150 µg/mL (≈ 389 µM) and a solubility of 156 ± 8.3 µg/mL (≈ 405 µM). Further, in series [3] (solubility less than 100 μg/mL), the “solubility class according to the definition of US Pharmacopeia” value is on record as “practically insoluble”. The amount in solution in series [3] (thermodynamic from solid, room temperature, 20 h, HPLC) (solubility at 20 h) came to 0.038 ± 0.01 µg/mL (≈ 0.0988 µM).

These data come from paper PMC7870075, “Physicochemical properties and formulation development of a novel compound inhibiting Staphylococcus aureus biofilm formation” (PLoS ONE, 2021).
